Results taken from US6610646B2, “Enhanced duration fragrance delivery system having a non-distorted initial fragrance impression” (The Procter & Gamble Company, priority 2000, dated 2003).

Legend:
[1] = Olfactory Intensity grading of solutions in DPG by expert panel, Final Determination (ODC and OSC); set-up: species or system human; conditions: for Olfactory Intensity: Final Determination, scale 0 to 100
Source text: Odor Detection Concentration, vD: The odor detection concentration (ODC) is defined herein as the lowest weight percent concentration of a fragrance raw material dissolved in dipropylene glycol (DPG) at which the average artisan of ordinary skill in perfume formulation can detect a fragrance raw material olfactory intensity of 10 on a scale of intensity ranging from 0 to 100.
Odor Saturation Concentration, vS: The odor saturation concentration (OSC) is defined herein as the amount of fragrance raw material, expressed as weight percent dissolved in DPG, beyond which no further odor impression is provided as measured by the average artisan of ordinary skill in perfume formulation.
(§1) To determine the ODC and the OSC for a given fragrance raw material f, an Olfactory Intensity vs. Log Concentration curve is constructed. This process is comprised of both an initial and a final determination.
Final Determination: In constructing the final curve, multiples of said starting concentration are used. The concentrations used are the starting concentration, [f]start=1c, and the multiples 5c, 10c, 20c, 40c, 80c, 160c, 320c, 640c, 1280c, 2560c, 5120c, 1024c, 2048c, 4096c, etc., up to and including the point where the multiple first surpasses [f]limit. Olfactory Intensity is graded for each solution from 0 to 100 by a panel of at least three expert graders composed of average artisans of ordinary skill in perfume formulation. The Olfactory Intensity at any concentration is taken to be the mean of the individual grades at that concentration.
The Final Determination yields values for the ODC and the OSC. The odor detection concentration (ODC) is defined herein as the lowest weight percent concentration, above [f]start, of a fragrance raw material dissolved in dipropylene glycol (DPG) at which the fragrance raw material olfactory intensity is 10 on a scale of intensity ranging from 0 to 100. The determination may require linear interpolation between two consecutive concentrations where one has an olfactory intensity below 10 and the other above 10. For 2,6-dimethyl-5-heptenal, the ODC as determined above is 0.0001 wt. % (Table III, Entry 3). The odor saturation concentration (OSC) is defined as the lowest concentration of a fragrance raw material above the ODC for which the Olfactory Intensity of the two immediately adjacent concentrations are separated by less than 5. For 2,6-dimethyl-5-heptenal, the OSC as determined above is 0.0256 wt. % (Table III, Entry 11).

[2] = Olfactory Intensity grading of solutions in DPG by expert panel, Initial Determination; set-up: species or system human
Source text: as §1
Olfactory Intensity is graded for each solution from 0 to 100 by a panel of at least three expert graders composed of average artisans of ordinary skill in perfume formulation. The Olfactory Intensity at any concentration is taken to be the mean of the individual grades at that concentration. Table I below gives Olfactory Intensity grades determined in this manner for two common fragrance raw materials at three different weight percent concentration in DPG.
The Initial Determination gives the general shape of the curve and is used to establish which of the nine concentrations (Entries 1-9 in Table II) will be used for the starting fragrance raw material concentration, [f]start, and which will be used for the upper concentration limit, [f]limit, in the Final Determination. The highest concentration of fragrance raw material that gives an Olfactory Intensity below 5 is chosen as the starting concentration for the Final Determination. In the example given, [f]start is 0.00001 wt. % of 2,6-dimethyl-5-heptenal in DPG (Table II, Entry 3). The lowest concentration of fragrance raw material above [f]start for which the Olfactory Intensity of the two immediately adjacent concentrations are separated by less than 5 is chosen as the upper concentration limit for the Final Determination. In the example given, [f]limit is 0.10 wt. % of 2,6-dimethyl-5-heptenal in DPG (Table II, Entry 7).

[3] = 0.0005 wt. % in DPG, scale 0 to 100, mean of panel grades

CC(C)=CCCC(C)C=O (stereo not drawn) [2,6-dimethyl-5-heptenal]
Olfactory Intensity ([1]; 0.00001 wt. % in DPG): 0
Olfactory Intensity ([1]; 0.00005 wt. % in DPG): 6
Olfactory Intensity ([1]; 0.0001 wt. % in DPG): 10
Olfactory Intensity ([1]; 0.0002 wt. % in DPG): 19
Olfactory Intensity ([1]; 0.0004 wt. % in DPG): 33
Olfactory Intensity ([1]; 0.0008 wt. % in DPG): 50
Olfactory Intensity ([1]; 0.0016 wt. % in DPG): 64
Olfactory Intensity ([1]; 0.0032 wt. % in DPG): 74
Olfactory Intensity ([1]; 0.0064 wt. % in DPG): 78
Olfactory Intensity ([1]; 0.0128 wt. % in DPG): 81
Olfactory Intensity ([1]; 0.0256 wt. % in DPG): 83
Olfactory Intensity ([1]; 0.0512 wt. % in DPG): 83
Olfactory Intensity ([1]; 0.1024 wt. % in DPG): 84
odor saturation concentration (OSC) ([1]; lowest concentration in DPG above the ODC where intensities of the two adjacent concentrations differ by less than 5): 0.0256 wt. %
odor detection concentration (ODC) ([1]; lowest concentration in DPG with olfactory intensity 10 on a scale 0 to 100): 0.0001 wt. %
Olfactory Intensity ([2]; Initial Determination, 0.0000001 wt. % in DPG, scale 0 to 100): 0
Olfactory Intensity ([2]; Initial Determination, 0.000001 wt. % in DPG, scale 0 to 100): 0
Olfactory Intensity ([2]; Initial Determination, 0.00001 wt. % in DPG, scale 0 to 100): 0
Olfactory Intensity ([2]; Initial Determination, 0.0001 wt. % in DPG, scale 0 to 100): 10
Olfactory Intensity ([2]; Initial Determination, 0.001 wt. % in DPG, scale 0 to 100): 55
Olfactory Intensity ([2]; Initial Determination, 0.01 wt. % in DPG, scale 0 to 100): 81
Olfactory Intensity ([2]; Initial Determination, 0.1 wt. % in DPG, scale 0 to 100): 83
Olfactory Intensity ([2]; Initial Determination, 1.0 wt. % in DPG, scale 0 to 100): 84
Olfactory Intensity ([2]; Initial Determination, 10.0 wt. % in DPG, scale 0 to 100): 84

CC=CC(=O)C1C(C)C=CCC1(C)C (stereo not drawn) [1-(2,6,6-trimethyl-3-cyclohexen-1-yl)-2-buten-1-one]
Olfactory Intensity ([2]; 0.00004 wt. % in DPG, scale 0 to 100, mean of panel grades): 30
Olfactory Intensity ([2]; 0.00009 wt. % in DPG, scale 0 to 100, mean of panel grades): 50
Olfactory Intensity [2, 3]: 70

CC1=CC(C)C(C=O)CC1 (stereo not drawn) [2,4-dimethyl-3-cyclohexene-1-carboxaldehyde]
Olfactory Intensity [2, 3]: 30
Olfactory Intensity ([2]; 0.001 wt. % in DPG, scale 0 to 100, mean of panel grades): 50
Olfactory Intensity ([2]; 0.003 wt. % in DPG, scale 0 to 100, mean of panel grades): 70
